These results are taken from ChEMBL document CHEMBL1201862, “PubChem BioAssay data set” (2004).

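Interpolation was linear, between the two tested concentrations surrounding the appropriate level; five concentrations were tested over 48 hours in 96-well plates. The concentration for 50% growth inhibition is given as GI50.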 Calls of active or inactive are those of the source. Cut-off read from the data, not from the text of the source: active = GI50 up to about 1.1 µM and inactive = higher. Where a SMILES comes first, the peptide text is derived from it. [ ]: non-standard residue; d: D form. The star is where a group is joined. ξ: configuration not given here. ξF = NC(Cc1ccccc1)C(=O)O; Cbz = O=C(OCc1ccccc1)*; Aib = CC(C)(N)C(=O)O

Test systems include A549; COLO 205; EKVX; HCT-15; HOP-62; HT-29; IGROV-1; LOX IMVI; MOLT-4; NCI-H460; OVCAR-5; OVCAR-8; SF-268; SK-MEL-28; SK-MEL-5; SNB-19; SW-620; U-251; UACC-62; UO-31.
Holding throughout (test): NCI tumour cell line growth inhibition, 48 h

In the case of `O=c1c2cc(I)ccc2nc(-c2cccs2)n1Nc1ccccc1`, the GI50 in the experiment on A549 is 1.06 µM (active); with COLO 205 it was 1.64 µM (inactive); in the experiment with EKVX, 13.5 µM (inactive); in the experiment with HCT-15 it was 5.78 µM; in the experiment with HOP-62 it was 18.8 µM (inactive); with HT-29, 3.21 µM (inactive). Further, the GI50 was 1.39 µM (inactive) with IGROV-1; 0.117 µM (active) in the experiment on LOX IMVI; 8.17 µM (inactive) in the experiment on MOLT-4; 0.458 µM (active) in the experiment on NCI-H460; 30.5 µM (inactive) in the experiment with OVCAR-5; 2.08 µM (inactive) with OVCAR-8. The GI50 in the experiment on SF-268 was 14.1 µM (inactive); in the experiment with SK-MEL-28, 17.9 µM (inactive); in the experiment with SK-MEL-5, 6.79 µM (inactive); with SNB-19 it was 23.5 µM (inactive); in the experiment on SW-620, 2.72 µM (inactive); in the experiment with U-251 it was 10.4 µM (inactive). In addition, the GI50 in the experiment on UACC-62 is 0.719 µM (active); in the experiment with UO-31, 0.889 µM (active).

`COC(=O)C(C)(C)NC(=O)C(Cc1ccccc1)NC(=O)C(C)(C)NC(=O)OCc1ccccc1` (stereo not given) (Cbz-[Aib]-[ξF]-[Aib]-OMe): the GI50 is > 100 µM (inactive) with A549; > 100 µM (inactive) in the experiment with COLO 205; > 100 µM (inactive) with EKVX; over 100 µM in the experiment on HCT-15; > 100 µM (inactive) in the experiment on HOP-62; > 100 µM (inactive) in the experiment on HT-29. For the same molecule, the GI50 in the experiment on IGROV-1, in the experiment with LOX IMVI, in the experiment on MOLT-4, in the experiment on NCI-H460, with OVCAR-5 and with OVCAR-8 was > 100 µM (inactive) throughout. Also, the GI50 in the experiment with SF-268, in the experiment with SK-MEL-28, in the experiment on SK-MEL-5, in the experiment on SNB-19, with SW-620 and in the experiment on U-251 was > 100 µM (inactive) in each case. Further, the GI50 with UACC-62 and with UO-31 was > 100 µM (inactive) each time.
